Results published in patent US11926576B1, “4,4′-naphthalene-1,5-diylbis(diazene-2,1-diyl)dibenzene-1,2-diol as an antioxidant compound” (KING FAISAL UNIVERSITY, priority 2023, dated 2024).

Assay: DPPH radical scavenging antioxidant test
Assay type: biochemical
Settings: 517 nm; for Inhibition (radical scavenging inhibition): compound 3 μM in ethanol, 0.2 mL DPPH (0.75 mM), 30 min incubation in the dark
Method: The antioxidant properties of the 4,4′-naphthalene-1,5-diylbis(diazene-2,1-diyl)dibenzene-1,2-diol were studied by adding 0.2 mL DPPH (0.75 mM)) to compound 4,4′-naphthalene-1,5-diylbis(diazene-2,1-diyl)dibenzene-1,2-diol (III) (3 μM) in ethanol. After 30 min of incubation in the dark, the absorbance was read against a blank at 517 nm. Ascorbic acid (vitamin C) was used as standard antioxidants (positive control). A blank sample was prepared by 0.2 ml of DPPH in 3 ml ethanol. A negative control sample was run using ethanol instead of the sample. The radical scavenging inhibition was calculated using the following equation: […]

SMILES	antioxidant potential (DPPH) compared to vitamin C (DPPH in vitro test, vitamin C as positive control)	Inhibition (radical scavenging inhibition) [%]
Oc1ccc(/N=N/c2cccc3c(/N=N/c4ccc(O)c(O)c4)cccc23)cc1O [Product III, 4,4′-naphthalene-1,5-diylbis(diazene-2,1-diyl)dibenzene-1,2-diol]	high potential as an antioxidant compared to vitamin C	50
O=C1O[C@H]([C@@H](O)CO)C(O)=C1O [vit c, Ascorbic acid, reference compound]		74
